# pEC50: −log10 of the molar value. Entries after “also recorded” stand apart in the source; their conditions may differ. Where two headings read alike, the source gives them in different places.
# What was measured:
# [1] = test system: Tat; experiment: Tat-flag sub-cellular localization by immunofluorescence; assay type: cell-based, HIV-1; settings: HeLa-CD4 cells transfected with Tat-flag
# Protocol: Flag epitope-tagged Tat was recognized with anti-flag and AlexaFluor 568 anti-IgG. Transfections were performed in HeLa-CD4 cells. Magnification 300×.
# Flag recognized with anti-flag and AlexaFluor 568 anti-IgG antibodies. Endogenous fibrillarin stained with anti-fibrillarin and FITC-anti-IgG antibodies.
# HeLa cells were grown on fibronectin treated coverslips and transfected with the indicated plasmids. Following transfection, cells were treated with DMSO or dCA. Cells were then fixed with 3.7% formaldehyde. After fixation, the cells were permeabilized with 0.1% triton X-100 in PBS with 5% FBS. Primary antibodies (mouse α-FLAG M2 (Sigma), rabbit α-Fibrillarin C13C3 (Cell Signaling), and/or rabbit α-Cyclin T1 H-245 (Santa Cruz)) were added along with the permeabilization solution and incubated at room temperature for 1 hour. The cells were washed with PBS and incubated with 1:500 dilution of Alexa Fluor conjugated secondary antibodies in PBS containing 5% FBS for 1 hour in the dark. […]
# Given that dCA interacts with Tat via its basic domain, which is also the nucleolar localization signal (NoLS), it was questioned whether dCA impacts Tat localization. […] The Tat basic mutant was analyzed in parallel, and this protein was completely excluded from the nucleolus both in the presence or absence of dCA.
# [2] = biological target: CDK11 (Homo sapiens, UniProt P21127); experiment: In vitro CDK11 kinase assay with 9G8 as substrate; assay type: biochemical
# Chain of CDK11 (P21127 whole entry): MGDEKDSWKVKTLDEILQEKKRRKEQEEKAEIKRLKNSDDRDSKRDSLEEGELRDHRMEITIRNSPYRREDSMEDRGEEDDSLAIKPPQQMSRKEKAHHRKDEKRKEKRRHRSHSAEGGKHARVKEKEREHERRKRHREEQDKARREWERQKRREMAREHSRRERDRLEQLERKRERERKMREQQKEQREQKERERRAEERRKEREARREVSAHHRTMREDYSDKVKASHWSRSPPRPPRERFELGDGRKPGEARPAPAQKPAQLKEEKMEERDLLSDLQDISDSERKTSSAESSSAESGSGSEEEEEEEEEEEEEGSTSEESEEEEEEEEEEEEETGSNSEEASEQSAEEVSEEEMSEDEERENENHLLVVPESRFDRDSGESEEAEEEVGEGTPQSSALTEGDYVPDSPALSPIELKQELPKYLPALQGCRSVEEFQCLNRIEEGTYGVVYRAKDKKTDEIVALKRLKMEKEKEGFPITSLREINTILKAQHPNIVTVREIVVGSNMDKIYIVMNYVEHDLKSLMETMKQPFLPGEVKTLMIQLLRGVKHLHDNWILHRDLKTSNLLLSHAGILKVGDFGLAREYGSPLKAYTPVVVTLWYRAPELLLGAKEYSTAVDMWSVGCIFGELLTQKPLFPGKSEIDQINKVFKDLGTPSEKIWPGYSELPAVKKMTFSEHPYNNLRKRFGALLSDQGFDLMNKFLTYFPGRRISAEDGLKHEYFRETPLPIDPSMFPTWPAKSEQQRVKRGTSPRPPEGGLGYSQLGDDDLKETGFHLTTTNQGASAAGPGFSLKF
# Protocol: To the mixture, 100 μM of ATP and 5 μCi of γ-^32P-ATP (3000 Ci/mmol 10 mCi/ml) were added to a final volume of 30 μl in kinase buffer. Following 30 min at 30° C., the reaction was terminated by addition of 6 μl of 6× SDS loading buffer. After boiling for 10 min, proteins were separated by SDS-PAGE. The gel was dried and visualized by autoradiography.
# [3] = test system: HIV-1 promoter; experiment: Elongation from HIV-1 promoter by qRT-PCR in chronically infected HeLa cells; assay type: cell-based; settings: dose-dependent
# Description: FIG. 3B: HIV-1 elongation from HIV-1 promoter measured by qPCR. […] All messages were normalized relative to GAPDH mRNA. The 100% value was arbitrarily assigned to the amounts of viral mRNA generated in the absence of compound, measured at 100 bp from start site. Right panel: Plotting of data obtained in left panel, setting each data point obtained with the 100 bp primer set at 100% and comparing to results obtained with 5.3 kb primer set.
# For these studies, the amounts of viral RNA present at different distances from the promoter were measured using sets of oligonucleotide primer pairs specific to quantify transcripts made up to 100 bp, 5.3 kb or 8.5 kb from the transcription start site (FIG. 3A). It was observed that even in the absence of drug, elongation from the HIV-1 viral promoter is not very efficient. In the presence of DMSO alone only 30% of 5.3 kb long transcripts and 6% of 8.5 kb long transcripts were produced (FIG. 3B—left panel).
# [4] = test system: HIV-1 pNL4-3; experiment: Chronically HIV-1 infected HeLa-CD4 cells, viral RNA by qRT-PCR / p24; assay type: cell-based
# Protocol: FIG. 1G: p24 antigen quantification. Viral supernatants recovered from cells described in FIG. 1B, grown for 60 days, were assayed for their p24 antigen content using a sandwich ELISA kit. Error bars represent standard deviations.
# First-strand cDNA from RNA for qPCR was prepared using […]™ first-strand cDNA kit (Invitrogen), following the manufacturer's instructions, using approximately 5 μg of RNA as starting material and random hexamers as first-strand primers. Quantitative PCR was performed with an aliquot of cDNA as template, using […]® 480 SYBR Green I Master (Roche) in a 20 μL reaction according to the manufacturer's instructions. […] The primers used were as follows: […]
# Such an early time point rules out de novo infections. […] This conclusion was further supported by the fact that treatment of cells that were chronically infected, and therefore continuously shedding the virus (without incurring new infections, due to down-regulation of CD4 from the cell surface), reduced virus production to undetectable levels (FIG. 1F). […] Results were similar when viral release from cells treated for 60 days were measured by p24 enzyme-linked immunosorbent assay (ELISA) (FIG. 1G).
# [5] = test system: HeLa-CD4 cells; experiment: MTT mitochondrial metabolic activity (cell viability); assay type: cell-based
# [6] = test system: HIV-1 pNL4-3; experiment: Acute HIV-1 infection, HeLa-CD4-LTR-LacZ reporter CPRG assay; assay type: cell-based
# Protocol: Forty-eight hours post infection a quantitative chlorophenol red-β-D-galactopyranoside (CPRG) assay was performed.
# Twenty-four hours later HIV-1 pNL4-3 was added to the cells of both experiment sets (MOI>>10) in the presence of testing compound or DMSO control. CPRG assay performed 48 h later.
# HeLa-CD4 cells were infected with HIV-1 pNL4-3 in the presence of the indicated compounds or DMSO. Forty hours post infection a CPRG assay was performed. […] Error bars represent standard deviation.
# P42 cells were plated at 1×10^4 cells per well of 96 well. Twenty-four hours later HIV-1 pNL4-3 was added to the wells in the presence of testing compound or DMSO control in a total volume of […] Forty hours post infection cells were disrupted in lysis buffer (60 mM Na2HPO4, 40 mM NaH2PO4, 10 mM KCl, 10 mM MgSO4, 2.5 mM EDTA, 50 mM β-mercaptoethanol, 0.125% Nonidet P-40) and a quantitative chlorophenol red-β-D-galactopyranoside (CPRG)-based (Boehringer Mannheim) assay was performed. The cell extracts were incubated in a reaction buffer (0.9 M phosphate buffer [pH 7.4], 9 mM MgCl2, 11 mM β-mercaptoethanol, 7 mM CPRG) until a red color developed (from approximately 10 min to 4 h) and measured with an LP400 (Becton Dickinson) plate reader at 572 nm. Experiments were performed in triplicate.
# Transcription of the HIV-1 provirus is regulated by both viral and cellular transcription factors. Before Tat is produced, low-level basal transcription from the viral promoter is initiated by cellular factors, such as the nuclear factor-kappa B (NF-kB), Sp1, TATA-binding protein and RNAPII. A desirable Tat inhibitor should block Tat-mediated activation of the viral promoter without affecting its basal transcription, which would result in cellular toxicity, given the shared transcription factors of the HIV promoter and cellular genes.
# [7] = Aqueous solubility / formulation in water; assay type: physicochemical; settings: formulated 1 mg/mL in water
structure (smiles),measurement,setting,value
"CN(C)[C@H]1C[C@@]23CC[C@@]4(O2)C(=CC[C@]2(C)C(c5ccc6ccncc6c5)=CC[C@H]24)C=C3[C@@H](O)[C@@H]1O [dCA, didehydro-Cortistatin A]",effect on Tat localization,[1],redistribution of Tat to the periphery of the nucleolus
same,in vitro CDK11 kinase activity,[2],unable to block; also recorded: did not inhibit
same,production of longer viral RNA species (elongation),[3],further decreased the production of longer viral RNA species
same,inhibition of viral replication,[4]; chronically infected cells grown in 100 nM for longer periods,99%
same,pEC50,[4]; read-out: EC50 for abrogating chronic HIV infection,> 10.00
same,pEC50,"[4]; treatment for 10 or 60 days, read-out: EC50, reduction of viral cellular RNA levels",≤ 10.00
same,EC90,"[4]; treatment for 10 or 60 days, read-out: EC90, reduction of viral cellular RNA levels",< 10 nM
same,CC50,[5],20 µM
same,CC50,"[5]; cultured cell lines or freshly isolated PBLs, read-out: cytotoxic concentration (CC50)",20 µM
same,maximal inhibition following acute infection,[6]; acute infection,75-85%
same,pEC50,"[6]; highest MOI, 48 h post infection, read-out: EC50, inhibition of transcription (β-gal activity)",8.59
same,reduction in the EC50 by pre-treatment of cells,[6]; pre-treatment for 24 h prior to infection,7 fold
same,reduction of infectivity,[6]; two-day acute infection assay,75-80%
same,aqueous solubility,[7],high aqueous solubility; also recorded: highly soluble in water
